Source: US20010007017A1, “PEPTIDES WHICH REACT WITH ANTIBODY RE[…] […] FOR HIV DISEASE PROGRESSION” (priority 1996, published 2001)

Key:
[1] = system: NTM.V Ab in sera of HIV-positive and healthy individuals; assay: ELISA IgG reactivity toward NTM peptide, non-heat-inactivated versus heat-inactivated sera; assay type: binding, human; conditions: compared with the same heat-inactivated sera
Experimental: The antibody binding of individual patient sera (measured by ELISA assay for heat-inactivated sera dilution 1:100) was presented by single point.
(a) Healthy individuals, and (b) HIV-positive patients.
Reactivity of sera collected from the healthy HIV-negative as well as HIV-positive individuals was examined after heat-inactivation at 40° C. and 56° C. The heat treatment of sera was performed in duration of 10, 20 and 30 minutes. Based on the obtained results (FIG. 14), it can be concluded that release of the NTM.V Ab from immune complexes is temperature and time dependent. In these experiments IgG reactivity toward two forms of the NTM peptide were monitored, i.e. uncoupled and BSA-coupled forms. The reactivity patterns of both NTM forms were similar.

[2] = system: natural anti-VIP antibodies in sera of HIV-negative asthma patients; conditions: sera of HIV-negative asthma patients with high titres of natural anti-VIP antibodies; cited from earlier work
[3] = system: viral infection; conditions: cited from earlier work

| Sequence | reactivity with non-heat-inactivated sera [1] | main end-point titre for hyperimmune sera [2] | reactivity of sera with the peptide [2] | blocking of viral infection ([3]; in vivo as printed) | effect on lymphocyte function ([3]; in vivo) |
| --- | --- | --- | --- | --- | --- |
| RSANFTDNAKTIIVQLNESVEIN [NTM, HIV-1 gp120-derived natural peptide] | very low reactivity | 1/10000 | strong reactivity | – | – |
| VVVRSLTFKTNKKT | – | – | – | effectively blocks viral infection | without impairing lymphocyte function |
